The results in this text go back to US4168206A, “Impregnated disk method for testing antifungal susceptibility” (Philadelphia College of Osteopathic Medicine, priority 1977, dated 1979).

The structures appear in SMILES notation. Values after ≈ are worked out from the molar mass of the structure shown. Like-named read-outs stand apart in the source and are kept apart here.

Holding throughout (format): cell-based
Experiment [1] concerns Trichosporon sp. The experiment in a line: MIC by impregnated disk method, Trichosporon sp. The following applies: Trichosporon, read-out: Minimum Inhibitory Concentration, Disk. The protocol:
(§1) Stock solutions of the antifungal agents to be tested are preferably prepared by diluting the antifungal agents in the proper nutrient medium. It is presently preferred to prepare dilutions in 10 ml of the proper medium to give the following final concentrations when applied to the disks (all quantities in micrograms per milliliter): 0.05, 0.08, 0.09, 0.1; 0.1 increment increases to 0.9, 1.0; 0.5 increment increases to 10.0; and 12.0, 14.0, 20.0, 25.0 and 50.0. Disks have been prepared by placing 0.05 ml of the above dilutions of antifungal agent containing medium on 6.5 mm diameter disks in 0.01 or 0.02 ml increments. The impregnated disks are then allowed to dry at a temperature preferably below about 10° C. […] The disks may also be dried by a lyophilization or freeze drying process.
(§2) To perform the tests in accordance with the present inventions, disks impregnated with various concentrations of antifungal agent and nutrient medium and a control disk impregnated only with the corresponding nutrient medium are placed on the fungus to be tested which has been applied to the non-nutrient medium. The disks are the inoculated non-nutrient medium are then incubated at a suitable temperature for a sufficient time to promote growth of the fungus. Any temperature is suitable if it will promote growth of the fungus without adversely affecting the fungus or the activity of the antifungal agent or agents tested. The time of incubation can be determined by observing the extent of growth around the control disk. […] The zones of growth or inhibition around the disks were read at 6, 12, 24, 36 and 48 hours after the disks were placed on the tested fungus.
(§3) The minimum inhibitory concentration is defined as the lowest concentration of antifungal agent which inhibits visible growth. […]
(§4) Several test disks and a control disk were placed in each petri dish containing the inoculated agar. The disks and petri dishes were then incubated at 29° C. and the minimum inhibitory concentration of the various concentrations of the antifungal agents were read at 6, 12, 24, 36 and 48 hours. […]

Experiment [2] relates to Candida albicans. The experiment in a line: MIC by broth dilution method, Candida albicans. The following applies: Candida albicans. The source says:
The preparation of the nutrient media, the antifungal agents and the fungi to be tested in the present invention are similar to those reported in S. Shadomy and A. Espinel-Ingroff, "Susceptibility Testing Of Antifungal Agents", Ch. 63, pp. 569-574 in E. H. Lennett, E. H. Spaulding, and J. P. Truant, Eds., Manual Of Clinical Microbiology, 2nd Ed., American Society for Microbiology, Washington, D.C. (1974). This publication describes the susceptibility testing of antifungal agents, namely, amphotericin B, nystatin and 5-fluoro-cytosine (5-FC), by the "broth dilution method" and the "semisolid agar dilution method". At pages 570-571, it is stated:
In 10 duplicate runs with each strain tested, the variation in minimum inhibitory concentration averaged ±0.05 μg/ml.
*Broth dilution method conducted in accordance with S. Shadomy and E.
Espinel-Ingroff, "Susceptibility Testing of Antifungal Agents", Ch. 63,
pp. 569-574 in E. H. Spaulding and J. P. Truant, Eds., Manual Of Clinical
Microbiology, 2nd Ed., American Society for Microbiology, Washington, […]
(In broth dilution the organism is exposed to a series of concentrations in liquid medium.)

For experiment [3], the system named is Geotrichum candidum. The experiment can be described thus: MIC by impregnated disk method, Geotrichum candidum. The following applies: read-out: Minimum Inhibitory Concentration, Disk. The protocol:
as §1, §2, §3, §4

In the case of `C[C@@H]1[C@H](O)[C@@H](C)/C=C/C=C/C=C/C=C/C=C/C=C/C=C/[C@H](O[C@@H]2O[C@H](C)[C@@H](O)[C@H](N)[C@@H]2O)C[C@@H]2O[C@](O)(C[C@@H](O)C[C@@H](O)[C@H](O)CC[C@@H](O)C[C@@H](O)CC(=O)O[C@H]1C)C[C@H](O)[C@H]2C(=O)O` [Amphotericin B, amphotericin B], the MIC came to 0.9 µg/mL (≈ 0.974 µM) in experiment [1]; 0.4 µg/mL (≈ 0.433 µM) in experiment [2] (isolate 1, read-out: Minimum Inhibitory Concentration, Broth); 0.7 µg/mL (≈ 0.758 µM) in experiment [2] (isolate 2, read-out: Minimum Inhibitory Concentration, Broth); 0.1 µg/mL (≈ 0.108 µM) in experiment [2] (isolate 3, read-out: Minimum Inhibitory Concentration, Broth); 0.6 µg/mL (≈ 0.649 µM) in experiment [2] (isolate 4, read-out: Minimum Inhibitory Concentration, Broth); 0.8 µg/mL (≈ 0.866 µM) in experiment [2] (isolate 5, read-out: Minimum Inhibitory Concentration, Broth). Moreover, the MIC worked out at 1.5 µg/mL (≈ 1.62 µM) in experiment [2] (isolate 6, read-out: Minimum Inhibitory Concentration, Broth) and 0.8 µg/mL (≈ 0.866 µM) in experiment [3].
